The record followed here is article PMC4808398 (Cell, 2016).

In test [1] the target is CASTOR1 homodimer-GATOR2 complex (Homo sapiens, UniProt Q8WTX7). Format: binding.
In test [2] the target is CASTOR1-CASTOR2 heterodimer-GATOR2 complex (Homo sapiens, UniProt Q8WTX7). Format: binding.

Sequence of CASTOR1 homodimer-GATOR2 complex (Q8WTX7 whole entry): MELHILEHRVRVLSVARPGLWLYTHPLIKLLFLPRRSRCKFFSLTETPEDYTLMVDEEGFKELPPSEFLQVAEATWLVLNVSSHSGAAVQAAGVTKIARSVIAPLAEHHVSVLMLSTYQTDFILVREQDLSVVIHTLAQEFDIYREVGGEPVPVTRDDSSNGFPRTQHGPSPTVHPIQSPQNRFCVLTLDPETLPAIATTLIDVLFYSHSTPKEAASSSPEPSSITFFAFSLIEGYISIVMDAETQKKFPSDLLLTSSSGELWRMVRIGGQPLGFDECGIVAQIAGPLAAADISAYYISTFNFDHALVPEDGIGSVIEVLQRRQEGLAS
Sequence of CASTOR1 homodimer-GATOR2 complex (Q9NXC5 whole entry partner): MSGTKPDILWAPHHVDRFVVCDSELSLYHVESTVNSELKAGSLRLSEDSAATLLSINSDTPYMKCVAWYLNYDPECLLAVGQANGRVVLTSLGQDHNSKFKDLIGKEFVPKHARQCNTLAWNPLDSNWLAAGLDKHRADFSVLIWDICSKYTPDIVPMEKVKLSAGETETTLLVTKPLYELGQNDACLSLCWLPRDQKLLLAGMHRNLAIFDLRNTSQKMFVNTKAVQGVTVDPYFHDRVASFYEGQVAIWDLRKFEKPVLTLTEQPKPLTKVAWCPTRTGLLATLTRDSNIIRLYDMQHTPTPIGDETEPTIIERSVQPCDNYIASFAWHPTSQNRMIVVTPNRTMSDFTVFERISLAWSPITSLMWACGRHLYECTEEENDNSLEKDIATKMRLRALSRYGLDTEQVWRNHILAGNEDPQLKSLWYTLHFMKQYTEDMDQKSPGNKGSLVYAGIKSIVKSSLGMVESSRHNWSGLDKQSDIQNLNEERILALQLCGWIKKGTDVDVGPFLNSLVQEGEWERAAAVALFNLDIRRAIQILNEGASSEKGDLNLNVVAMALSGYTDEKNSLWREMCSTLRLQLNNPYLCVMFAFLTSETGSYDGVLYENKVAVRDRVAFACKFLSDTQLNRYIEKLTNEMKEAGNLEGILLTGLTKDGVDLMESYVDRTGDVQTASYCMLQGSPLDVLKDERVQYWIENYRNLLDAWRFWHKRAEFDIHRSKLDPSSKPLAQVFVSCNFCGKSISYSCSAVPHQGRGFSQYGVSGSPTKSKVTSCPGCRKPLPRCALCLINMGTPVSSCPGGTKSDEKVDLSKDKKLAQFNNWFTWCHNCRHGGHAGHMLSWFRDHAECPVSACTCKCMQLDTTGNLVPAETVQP
Sequence of CASTOR1 homodimer-GATOR2 complex (Q96S15 whole entry partner): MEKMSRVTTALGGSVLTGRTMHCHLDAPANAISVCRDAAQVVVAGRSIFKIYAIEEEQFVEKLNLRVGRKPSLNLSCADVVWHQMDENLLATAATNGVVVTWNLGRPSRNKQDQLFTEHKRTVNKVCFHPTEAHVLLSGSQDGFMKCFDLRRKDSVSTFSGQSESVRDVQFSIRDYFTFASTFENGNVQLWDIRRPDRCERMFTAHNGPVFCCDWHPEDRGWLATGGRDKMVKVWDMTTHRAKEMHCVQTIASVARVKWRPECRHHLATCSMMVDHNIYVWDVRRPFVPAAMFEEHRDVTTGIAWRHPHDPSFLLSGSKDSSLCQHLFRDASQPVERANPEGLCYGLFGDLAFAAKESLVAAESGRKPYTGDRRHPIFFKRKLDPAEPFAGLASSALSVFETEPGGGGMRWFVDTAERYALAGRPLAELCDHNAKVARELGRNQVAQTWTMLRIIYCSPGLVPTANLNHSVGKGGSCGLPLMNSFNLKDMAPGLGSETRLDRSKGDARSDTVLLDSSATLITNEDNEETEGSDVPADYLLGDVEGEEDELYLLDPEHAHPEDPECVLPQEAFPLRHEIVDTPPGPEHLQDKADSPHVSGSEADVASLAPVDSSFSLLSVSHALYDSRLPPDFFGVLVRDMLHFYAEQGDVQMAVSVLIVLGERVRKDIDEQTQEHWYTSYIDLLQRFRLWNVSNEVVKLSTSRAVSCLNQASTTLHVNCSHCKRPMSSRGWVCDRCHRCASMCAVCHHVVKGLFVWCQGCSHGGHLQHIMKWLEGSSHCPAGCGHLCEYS
Sequence of CASTOR1 homodimer-GATOR2 complex (Q6PJI9 whole entry partner): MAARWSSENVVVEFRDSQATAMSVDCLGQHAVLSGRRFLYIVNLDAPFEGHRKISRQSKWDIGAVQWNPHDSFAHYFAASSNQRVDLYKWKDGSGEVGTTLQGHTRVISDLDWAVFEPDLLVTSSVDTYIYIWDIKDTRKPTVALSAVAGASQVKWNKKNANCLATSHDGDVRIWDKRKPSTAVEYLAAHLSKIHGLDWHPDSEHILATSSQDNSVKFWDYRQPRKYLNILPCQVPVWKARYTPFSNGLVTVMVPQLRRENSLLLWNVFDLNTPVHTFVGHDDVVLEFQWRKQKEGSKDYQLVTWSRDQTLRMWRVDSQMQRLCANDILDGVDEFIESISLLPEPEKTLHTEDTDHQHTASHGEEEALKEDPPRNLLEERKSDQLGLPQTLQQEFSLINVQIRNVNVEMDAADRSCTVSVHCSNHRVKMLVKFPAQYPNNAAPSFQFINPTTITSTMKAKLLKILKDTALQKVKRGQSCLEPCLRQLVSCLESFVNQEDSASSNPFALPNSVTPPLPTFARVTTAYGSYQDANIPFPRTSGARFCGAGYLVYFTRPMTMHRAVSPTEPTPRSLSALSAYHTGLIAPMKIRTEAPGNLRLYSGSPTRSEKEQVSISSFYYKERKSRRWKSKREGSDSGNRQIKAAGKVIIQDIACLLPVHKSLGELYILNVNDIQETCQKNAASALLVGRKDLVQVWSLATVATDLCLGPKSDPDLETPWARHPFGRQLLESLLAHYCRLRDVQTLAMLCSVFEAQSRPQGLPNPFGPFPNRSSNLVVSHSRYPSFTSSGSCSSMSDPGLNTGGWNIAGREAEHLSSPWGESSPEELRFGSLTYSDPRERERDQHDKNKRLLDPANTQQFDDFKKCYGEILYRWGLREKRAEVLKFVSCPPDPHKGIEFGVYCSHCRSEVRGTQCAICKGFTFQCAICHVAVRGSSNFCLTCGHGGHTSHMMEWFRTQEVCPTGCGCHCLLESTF
Sequence of CASTOR1 homodimer-GATOR2 complex (Q96EE3 whole entry partner): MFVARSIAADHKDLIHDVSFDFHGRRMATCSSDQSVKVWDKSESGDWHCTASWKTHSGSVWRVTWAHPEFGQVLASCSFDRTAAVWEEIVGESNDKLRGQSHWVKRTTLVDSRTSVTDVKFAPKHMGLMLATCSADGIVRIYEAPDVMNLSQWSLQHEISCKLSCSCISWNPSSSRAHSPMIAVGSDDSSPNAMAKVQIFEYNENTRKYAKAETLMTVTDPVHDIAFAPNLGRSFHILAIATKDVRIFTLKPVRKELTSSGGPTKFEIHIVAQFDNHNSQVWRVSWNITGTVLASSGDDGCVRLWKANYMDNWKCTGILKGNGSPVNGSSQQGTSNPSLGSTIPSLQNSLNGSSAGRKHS
Sequence of CASTOR1 homodimer-GATOR2 complex (P55735 2-322 partner): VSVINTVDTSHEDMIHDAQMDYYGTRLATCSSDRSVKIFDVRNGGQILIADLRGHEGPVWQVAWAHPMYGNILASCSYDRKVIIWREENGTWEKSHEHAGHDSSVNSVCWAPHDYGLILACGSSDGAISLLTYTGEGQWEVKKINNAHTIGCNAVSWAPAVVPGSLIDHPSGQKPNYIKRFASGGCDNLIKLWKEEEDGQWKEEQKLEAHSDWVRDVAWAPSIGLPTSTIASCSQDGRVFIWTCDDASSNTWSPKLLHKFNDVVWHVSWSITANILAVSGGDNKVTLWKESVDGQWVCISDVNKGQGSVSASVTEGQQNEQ

As a reminder, the IC50 is the concentration at which inhibition is half-maximal. For the compound `N=C(N)NCCC[C@H](N)C(=O)O` [arginine], the IC50 in test [1] and in test [2] was 20 to 40 µM throughout.
